One substance from US10806164B2 (priority 2016, dated 2020) can be followed below.

For series [1] the following is noted: rat, in vivo.
The conditions of series [2]: rat, in vivo. The source holds these as a separate data set.

Marks after values point to notes of the source that are not given here.

For Deoxynivalenol [DON], in series [1], the “Effect on consumption of food” value is recorded as “affected the consumption of food”, the “Food consumption Means ± standard error” value was 569 ± 19.1 ^b, the “Food consumption from 0 to 7 days” value is listed as 98 ± 4.75 ^a and the “Food consumption from 7 to 14 days” value is on record as 109 ± 4.84 ^a. In series [1], the “Food consumption from 14 to 21 days” value is 109 ± 5.41 ^b, the “Food consumption from 21 to 28 days” value is 121 ± 4.83 ^b, the “Food consumption from 28 to 35 days” value was 132 ± 3.10 ^b and the “Food conversion Means ± standard error” value is 5.22 ± 0.195 ^b. In series [1], the “Gain of weight from 0 to 7 days” value is listed as 24 ± 2.45 ^b, the “Gain of weight from 7 to 14 days” value is 24 ± 3.04 ^a, the “Gain of weight from 14 to 21 days” value is 21 ± 2.92 ^a and the “Gain of weight from 21 to 28 days” value is listed as 13 ± 3.89 ^b. In addition, in series [1], the “Gain of weight from 28 to 35 days” value is 27 ± 3.63 ^a and the “Weight gain Means ± standard error” value was 109 ± 6.61 ^b g. For the same substance, in series [2], the “Consumption food Means ± Standard error” value is on record as 511 ± 5.71 ^b.
